Laboratory results published in US4103008A, “7[2(2,3 Dioxopiperazin-1-yl-carbonylamino)substituted 2 phenylacetamido]-3-2'-thiadiazolyl cephalosporanic acid derivatives” (priority 1976, dated 1978).
Converted amounts (≈) assume the structure as drawn. Where two headings read alike, the source gives them in different places.

Legend:
[1] = system: Pseudomonas aeruginosa E2; assay: MIC against Pseudomonas aeruginosa E2; format: cell-based
[2] = system: Shigella dysenteriae shigae; assay: microbe, parasite or virus in culture; format: cell-based
Escherichia coli C 73-4 = assay: In vitro antibacterial activity (MIC); format: cell-based; conditions: C734; Escherichia coli C 73-4; in vitro; sodium salts; read-out: MIC
Serratia strain No. 1 = assay: In vitro antibacterial activity (MIC); format: cell-based; conditions: Serratia strain No. 1; in vitro; sodium salts; read-out: MIC
Proteus morganii kono = assay: In vitro antibacterial activity (MIC); format: cell-based; conditions: Morganella morganii; Proteus morganii kono; in vitro; sodium salts; read-out: MIC
Proteus morganii C73-23 = assay: In vitro antibacterial activity (MIC); format: cell-based; conditions: Morganella morganii, C7323; Proteus morganii C73-23; in vitro; sodium salts; read-out: MIC
[3] = system: Bacillus substilis ATCC 6633; assay: In vitro antibacterial activity (MIC); format: cell-based; conditions: ATCC6633; Bacillus substilis ATCC 6633; in vitro; sodium salts; read-out: MIC
[4] = system: Pseudomonas aeruginosa C73-2; assay: In vitro antibacterial activity (MIC); format: cell-based; conditions: C732; Pseudomonas aeruginosa C73-2; in vitro; sodium salts; read-out: MIC
[5] = system: Pseudomonas strain C73-63; assay: In vitro antibacterial activity (MIC); format: cell-based; conditions: C7363; Pseudomonas strain C73-63; in vitro; sodium salts; read-out: MIC
[6] = system: Pseudomonas aerugenosa E 2 strain; assay: ED50 in Pseudomonas infection in mice; format: in vivo; conditions: ICR-JCL mouse, male, 20g; P. aerugenosa E 2 3.6 × 10^4 intraperitoneal; compound intramuscular after 2 hrs.; ED50 after 7 days; sodium salts
Excerpt: (§1) Given below are the test results of in vitro antibacterial activity studies, serum concentrations and accumulative urinary excretions in rabbits and the protecting effects in mice, of some representative compounds of the invention.
(§2) The compounds used in the tests are shown in the following Table 1, but all of these compounds are in the form of the sodium salt.
Pseudomonas aerugenosa E 2 strain (3.6 × 10^4) was intraperitonealy injected to each group of 10 of ICR-JCL mouse (male, 20g). After 2 hrs., each of the test compounds was intramuscularly administered to the infected mice and the ED50 values were measured after 7 days.

[7] = Serum concentration and accumulative urinary excretion in rabbit; conditions: in vivo, im; for dose excreted at 6 h: 20 mg/kg; for concentration at 0.5 h: 20 mg/kg intramuscular, after 30 mins., sodium salts, Sarcina lutea assay
Method: as §1, §2
Each of the test compounds (20 mg/kg) was intramuscularly administered to one group of 3 rabbits, and the amounts of antibiotics were measured by a conventional method, using Sarcina lutea.

Escherichia coli C 73-1 = assay: In vitro antibacterial activity (MIC); format: cell-based; conditions: C731
[8] = system: Vibrio parahaemolyticus K - 3; assay: In vitro antibacterial activity (MIC); format: cell-based; conditions: K3; Vibrio parahaemolyticus K - 3; in vitro; sodium salts; read-out: MIC
[9] = system: Streptococcus faecalis ATCC 8043; assay: In vitro antibacterial activity (MIC); format: cell-based; conditions: Enterococcus faecalis, ATCC8043; Streptococcus faecalis ATCC 8043; in vitro; sodium salts; read-out: MIC
[10] = system: Vibrio parahaemolyticus K - 5; assay: In vitro antibacterial activity (MIC); format: cell-based; conditions: K5; Vibrio parahaemolyticus K - 5; in vitro; sodium salts; read-out: MIC
[11] = system: Enterobacter strain C73-17; assay: In vitro antibacterial activity (MIC); format: cell-based; conditions: C7317
[12] = system: Staphylococcus aureus FDA 209NIH, P-J C-1; assay: In vitro antibacterial activity (MIC); format: cell-based; conditions: Staphylococcus aureus FDA 209NIH, P-J C-1; in vitro; sodium salts; read-out: MIC
Klebsilla pneumoniae = assay: In vitro antibacterial activity (MIC); format: cell-based
[13] = system: Salmonella strain C 73-30; assay: In vitro antibacterial activity (MIC); format: cell-based; conditions: C7330; Salmonella strain C 73-30; in vitro; sodium salts; read-out: MIC
Excerpt: as §1, §2

[14] = system: Pseudomonas strain C73-83; assay: In vitro antibacterial activity (MIC); format: cell-based; conditions: C7383; Pseudomonas strain C73-83; in vitro; sodium salts; read-out: MIC
Excerpt: as §1, §2

Salmonella strain C73-1 = assay: In vitro antibacterial activity (MIC); format: cell-based; conditions: C731; Salmonella strain C73-1; in vitro; sodium salts; read-out: MIC
Excerpt: as §1, §2

Serratia strain No. 2 = assay: In vitro antibacterial activity (MIC); format: cell-based; conditions: Serratia strain No. 2; in vitro; sodium salts; read-out: MIC
[15] = system: Salmonella enteritidis No. 11; assay: In vitro antibacterial activity (MIC); format: cell-based; conditions: Salmonella enterica; Salmonella enteritidis No. 11; in vitro; sodium salts; read-out: MIC
[16] = Escherichia coli C 73-1, in vitro, sodium salts, read-out: MIC
[17] = Enterobacter strain C73-17, in vitro, sodium salts, read-out: MIC
[18] = Klebsilla pneumoniae, in vitro, sodium salts, read-out: MIC

CCN1CCN(C(=O)N[C@@H](C(=O)NC2C(=O)N3C(C(=O)O)=C(CSc4nncs4)CS[C@H]23)c2ccc(OC(=O)CC(C)=O)cc2)C(=O)C1=O (single isomer, unassigned) [Example 9, 7-[D(-)-α-(4-ethyl-2,3-dioxopiperazin-1-yl-carbonylamino)-p-acetoacetoxyphenylacetamido]-3-(1,3,4-thiadiazol-2-yl-thiomethyl)-3-cephem-4-carboxylic acid]
MIC [1]: 6.25 mg/L (≈ 8.54 µM)

CCN1CCN(C(=O)N[C@@H](C(=O)NC2C(=O)N3C(C(=O)O)=C(CSc4nncs4)CS[C@H]23)c2ccc(OC(=O)CC(C)=O)c(Cl)c2)C(=O)C1=O (single isomer, unassigned) [Example 10, 7-[D(-)-α-(4-ethyl-2,3-dioxopiperazin-1-yl-carbonylamino)-m-chloro-p-acetoacetoxyphenylacetamido]-3-(1,3,4-thiadiazol-2-yl-thiomethyl)-3-cephem-4-carboxylic acid]
MIC [1]: 3.13 mg/L (≈ 4.08 µM)

CCOC(=O)Oc1ccc([C@@H](NC(=O)N2CCN(CC)C(=O)C2=O)C(=O)NC2C(=O)N3C(C(=O)O)=C(CSc4nnc(C)s4)CS[C@H]23)cc1 (single isomer, unassigned) [Example 11, 7-[D(-)-α-(4-ethyl-2,3-dioxopiperazin-1-yl-carbonylamino)-p-ethoxycarbonyloxyphenylacetamido]-3-(5-methyl-1,3,4-thiadiazol-2-yl-thiomethyl)-3-cephem-4-carboxylic acid]
MIC [1]: 12.5 mg/L (≈ 17 µM)

CCOC(=O)Oc1ccc([C@@H](NC(=O)N2CCN(CC)C(=O)C2=O)C(=O)NC2C(=O)N3C(C(=O)O)=C(CSc4nnc(C)s4)CS[C@H]23)cc1Cl (single isomer, unassigned) [Example 12, 7-[D(-)-α-(4-ethyl-2,3-dioxopiperazin-1-yl-carbonylamino)-m-chloro-p-ethoxycarbonyloxyphenylacetamido]-3-(5-methyl-1,3,4-thiadiazol-2-yl-thiomethyl)-3-cephem-4-carboxylic acid]
MIC [1]: 12.5 mg/L (≈ 16.3 µM)

CCN1CCN(C(=O)N[C@@H](C(=O)NC2C(=O)N3C(C(=O)O)=C(CSc4nncs4)CS[C@H]23)c2ccc(OC(=O)OCC(C)C)cc2)C(=O)C1=O (single isomer, unassigned) [Example 17, 7-[D(-)-α-(4-ethyl-2,3-dioxopiperazin-1-yl-carbonylamino)-p-iso-butoxycarbonyloxyphenylacetamido]-3-(1,3,4-thiadiazol-2-yl-thiomethyl)-3-cephem-4-carboxylic acid]
MIC [1]: 12.5 mg/L (≈ 16.7 µM)

CCN1CCN(C(=O)N[C@@H](C(=O)NC2C(=O)N3C(C(=O)O)=C(CSc4nncs4)CS[C@H]23)c2ccc(OC(C)=O)c(Cl)c2)C(=O)C1=O (single isomer, unassigned) [IV, 7-[D(-)-α-(4-ethyl-2,3-dioxopiperazin-1-yl-carbonylamino)-m-chloro-p-acetoxyphenylacetamido]-3-(1,3,4-thiadiazol-2-yl-thiomethyl)-3-cephem-4-carboxylic acid]
MIC [2]: 0.39 mg/L (≈ 0.539 µM)
MIC (Escherichia coli C 73-4): 6.25 mg/L
MIC (Serratia strain No. 1): 3.13 mg/L
MIC (Proteus morganii kono): 3.13 mg/L
MIC (Proteus morganii C73-23): 12.5 mg/L
MIC [3]: 6.25 mg/L
MIC [4]: 3.13 mg/L
MIC [5]: 3.13 mg/L
ED50 in Pseudomonas infection in mice [6]: 1.8 mg/mouse
dose excreted at 6 h [7]: 27%
concentration at 0.5 h [7]: 34.9 µg/mL
MIC (Escherichia coli C 73-1; [16]): 6.25 mg/L
MIC [8]: 12.5 mg/L
MIC [9]: 1.56 mg/L
MIC [10]: 12.5 mg/L
MIC [11, 17]: 25 mg/L
MIC [12]: 6.25 mg/L
MIC (Klebsilla pneumoniae; [18]): 0.78 mg/L
MIC [13]: 1.56 mg/L
MIC [14]: 25 mg/L
MIC (Salmonella strain C73-1): 1.56 mg/L
MIC (Serratia strain No. 2): 3.13 mg/L
MIC [15]: 3.13 mg/L

CCOC(=O)Oc1ccc([C@@H](NC(=O)N2CCN(CC)C(=O)C2=O)C(=O)NC2C(=O)N3C(C(=O)O)=C(CSc4nncs4)CS[C@H]23)cc1 (single isomer, unassigned) [V, 7-[D(-)-α-(4-ethyl-2,3-dioxopiperazin-1-yl-carbonylamino)-p-ethoxycarbonyloxyphenylacetamido]-3-(1,3,4-thiadiazol-2-yl-thiomethyl)-3-cephem-4-carboxylic acid]
MIC [2]: 0.78 mg/L (≈ 1.08 µM)
MIC (Escherichia coli C 73-4): 3.13 mg/L
MIC (Serratia strain No. 1): 3.13 mg/L
MIC (Proteus morganii kono): 3.13 mg/L
MIC (Proteus morganii C73-23): 12.5 mg/L
MIC [3]: 0.78 mg/L
MIC [4]: 6.25 mg/L
MIC [5]: 6.25 mg/L
ED50 in Pseudomonas infection in mice [6]: 1.0 mg/mouse
dose excreted at 6 h [7]: 24.1%
concentration at 0.5 h [7]: 43 µg/mL
MIC (Escherichia coli C 73-1; [16]): 1.56 mg/L
MIC [8]: 6.25 mg/L
MIC [9]: 12.5 mg/L
MIC [10]: 6.25 mg/L
MIC [11, 17]: 3.13 mg/L
MIC [12]: 0.39 mg/L
MIC (Klebsilla pneumoniae; [18]): 0.39 mg/L
MIC [13]: 1.56 mg/L
MIC [14]: 25 mg/L
MIC (Salmonella strain C73-1): 1.56 mg/L
MIC (Serratia strain No. 2): 3.13 mg/L
MIC [15]: 0.2 mg/L

CCOC(=O)Oc1ccc([C@@H](NC(=O)N2CCN(CC)C(=O)C2=O)C(=O)NC2C(=O)N3C(C(=O)O)=C(CSc4nncs4)CS[C@H]23)cc1Cl (single isomer, unassigned) [VI, 7-[D(-)-α-(4-ethyl-2,3-dioxopiperazin-1-yl-carbonylamino)-m-chloro-p-ethoxycarbonyloxyphenylacetamido]-3-(1,3,4-thiadiazol-2-yl-thiomethyl)-3-cephem-4-carboxylic acid]
MIC [2]: 1.56 mg/L (≈ 2.07 µM)
MIC (Escherichia coli C 73-4): 3.13 mg/L
MIC (Serratia strain No. 1): 6.25 mg/L
MIC (Proteus morganii kono): 3.13 mg/L
MIC (Proteus morganii C73-23): 12.5 mg/L
MIC [3]: 0.39 mg/L
MIC [4]: 12.5 mg/L
MIC [5]: 3.13 mg/L
ED50 in Pseudomonas infection in mice [6]: 0.8 mg/mouse
dose excreted at 6 h [7]: 17.4%
concentration at 0.5 h [7]: 19.4 µg/mL
MIC (Escherichia coli C 73-1; Escherichia coli): 1.56 mg/L (≈ 2.07 µM)
MIC [8]: 12.5 mg/L
MIC [9]: 6.25 mg/L
MIC [10]: 12.5 mg/L
MIC ([11]; Enterobacter): 1.56 mg/L (≈ 2.07 µM)
MIC [12]: 0.39 mg/L
MIC (Klebsilla pneumoniae): 1.56 mg/L (≈ 2.07 µM)
MIC [13]: 3.13 mg/L
MIC [14]: 12.5 mg/L
MIC (Salmonella strain C73-1): 3.13 mg/L
MIC (Serratia strain No. 2): 6.25 mg/L
MIC [15]: 0.2 mg/L
